{"source": "patent US12246009B2", "about": "“Compositions and methods for treating neurodegenerative, myodegenerative, and lysosomal storage disorders” (GEORGETOWN UNIVERSITY, priority 2018, dated 2025)", "key": {"[1]": {"test_system": "APP mice", "experiment": "Morris Water Maze test in APP mice", "type": "in vivo, mouse", "details": "1.25 mg/kg, trend, no significant difference between groups"}, "[2]": {"test_system": "pTau (191)", "experiment": "pTau in CamP301L mice", "type": "in vivo, mouse", "details": "2.5 mg/kg or 5 mg/kg"}, "[3]": {"test_system": "phosphorylated Tau (AT8)", "experiment": "Phosphorylated Tau (AT8) immunoblot in rTG4510 mice", "type": "in vivo, mouse", "details": "all three doses (1.25, 2.5, 5 mg/kg) i.p., 7 days"}, "[4]": {"test_system": "amyloid-beta (6E10)", "experiment": "Amyloid-beta (6E10) immunoblot in transgenic APP mice", "type": "in vivo, mouse", "details": "1.25 and 2.5 mg/kg i.p., 21 consecutive days"}, "[5]": {"test_system": "pTau (181)", "experiment": "pTau (181) ELISA in pTau transfected B35 cells", "type": "cell-based, rat", "details": "24 hour transfection"}, "[6]": {"biological_target": "T1, Ab1 (Mus musculus, UniProt P00520)", "T1 construct": "Brains from treated mice compared with DMSO treated mice were homogenized in STEN lysis buffer; from tissue; host or cells: brain of rTg4510 or TgAPP mice", "experiment": "Activated Ab1 immunoblot in rTG4510 mice", "type": "in vivo", "details": "rTG4510 mice, 1.25, 2.5 or 5 mg/kg i.p., 7 days"}, "[7]": {"test_system": "B35 cells", "experiment": "Lactate dehydrogenase (LDH) assay, cytotoxicity / cell viability", "type": "cell-based", "details": "for LDH measured in the media (cell death / toxicity): 24 hour transfection with pTau or α-synuclein", "protocol": "Rat neuroblastoma B35 cells were grown in Dulbecco's Modified Eagle's Medium (DMEM) with 10% Fetal Bovine Serum (FBS) and 1% penicillin/streptomycin and incubated at 37° C. with 5% CO2. For the experiments, cells were transferred to 12-well plates (Cat. #150628, ThermoFisher, Waltham, MA) and grown to at least 70% confluence. Transient transfection was performed with 3 μg P301 L tau (Cat. #30145, Addgene) cDNA or 3 μg human α-synuclein cDNA using Fugene HD transfection reagent (Cat. #E2311, Promega, Madison WI) for 24 hours. […] Cell culture media was collected and cells were harvested using sodium-tris, EDTA, NP-40 (STEN) buffer and centrifuged at 10,000×g for 20 minutes at 4′C and supernatant was collected. Cell viability was determined via lactate dehydrogenase assay (Cat. #88954, Thermofisher) and MTT assay (Cat. #V13154, Thermofisher). Protein was extracted by removing culture medium and adding 0.2 ml 1× STEN buffer (50 mM. Tris (pH 7.6), 150 mM NaCl, 2 mM EDTA, 0.2% NP-40, 0.2% BSA, 20 mM. PMSF and protease cocktail inhibitor) to cell layer and incubated on ice for 10 minutes. The bottom of the well was scraped and allowed to incubate on ice for an additional 10 minutes. Cell lysates were collected, stored at −80° C., and used for additional analyses.\nCellular cytotoxicity was quantitatively measured by assessment of LDH; a cytosolic enzyme that is released from damaged cells into the cellular media, after exposure to the drug 5 hours after initial dosage. The cell culture media was collected, and an aliquot was coupled with a lactate and NAD+. LDH catalyzes the reaction that converts lactate into pyruvate to produce NADH. NADH, in turn, reduces a tetrazolium salt (INT) into a red formazan product. The amount of LDH in the media is proportional to the amount of formazan, which was measured at 490 nm. The absorbance at 680 nm, to measure the background signal from the instrument, was subtracted from the absorbance at 490 nm to calculate the LDH activity."}, "[8]": {"biological_target": "T2, Src (Mus musculus, UniProt P05480)", "T2 construct": "Brains from treated mice compared with DMSO treated mice were homogenized in STEN lysis buffer; from tissue; host or cells: brain of rTg4510 mice", "experiment": "Activated Src immunoblot in rTG4510 mice", "type": "in vivo", "details": "rTG4510 mice, 1.25, 2.5 or 5 mg/kg i.p., 7 days"}, "[9]": {"test_system": "B35 cells", "experiment": "MTT assay, cell viability", "type": "cell-based, rat", "details": "1 μM, 16 hours of treatment, compared to control", "protocol": "Rat neuroblastoma B35 cells were grown in Dulbecco's Modified Eagle's Medium (DMEM) with 10% Fetal Bovine Serum (FBS) and 1% penicillin/streptomycin and incubated at 37° C. with 5% CO2. For the experiments, cells were transferred to 12-well plates (Cat. #150628, ThermoFisher, Waltham, MA) and grown to at least 70% confluence. Transient transfection was performed with 3 μg P301 L tau (Cat. #30145, Addgene) cDNA or 3 μg human α-synuclein cDNA using Fugene HD transfection reagent (Cat. #E2311, Promega, Madison WI) for 24 hours. Cells were treated with 1 mM, 100 μM, 10 μM, 1 μM, 0.1 μM, 0.01 μM, and 0.001 μM dissolved in DMSO or an equivalent 5 ul of DMSO for 5 hours. Cell culture media was collected and cells were harvested using sodium-tris, EDTA, NP-40 (STEN) buffer and centrifuged at 10,000×g for 20 minutes at 4′C and supernatant was collected. Cell viability was determined via lactate dehydrogenase assay (Cat. #88954, Thermofisher) and MTT assay (Cat. #V13154, Thermofisher). […]\nTo measure cell viability, cells were incubated with 500 μL of Dulbecco's Modified Eagle's Medium (DMEM) containing 50 μL of (3-[4,5-dimethylthiazol-2-yl]-2,5-diphenyl-tetrazolium bromide (MTT)) for 4 hours at 37° C. and 5% CO2. […] Absorbance was read against a blank containing 125 uL of media and MTT, and 250 uL of DMS at 570 nm."}, "[10]": {"test_system": "human phosphorylated tau (Ser396)", "experiment": "Human phosphorylated tau (Ser396) ELISA in transgenic APP mice", "type": "in vivo, mouse", "details": "2.5 mg/kg i.p., 21 days"}, "[11]": {"test_system": "A53T mice", "experiment": "Open field test in A53T mice", "type": "in vivo, mouse", "details": "60-minute trial"}, "[12]": {"test_system": "Tau (HT7)", "experiment": "Tau (HT7) in Tau transgenic mice", "type": "in vivo, mouse", "details": "seven days of treatment, 1.25 mg/kg and 2.5 mg/kg"}, "[13]": {"test_system": "dopamine", "experiment": "Dopamine and homovanillic acid (HVA) levels in A53T mice", "type": "in vivo, mouse", "details": "2.5 mg/kg i.p., 21 days"}}}
{"smiles": "Cc1cccc(-c2cc3nccc(Nc4ccccc4)c3s2)c1", "note": "[BK40143, N-Phenyl-2-(m-tolyl)thieno[3,2-b]pyridin-7-amine]", "values": [{"measurement": "distance travelled before first entry to the platform, Morris Water Maze", "setting": "[1]", "value": "lower distance travelled before the first entry"}, {"measurement": "latency to the first entry, Morris Water Maze", "setting": "[1]", "value": "lower latency to first entry"}, {"measurement": "number of platform entries, Morris Water Maze", "setting": "[1]", "value": "higher numbers of platform entries"}, {"measurement": "pTau (191) level", "setting": "[2]", "value": "reduced"}, {"measurement": "reduction of phosphorylated Tau (AT8), immunoblot", "setting": "[3]", "value": "41-49%"}, {"measurement": "aggregating extracellular amyloid-beta (6E10), immunoblot", "setting": "[4]", "value": "significantly reduced amyloid-beta plaques"}, {"measurement": "pTau (181) levels", "setting": "[5]", "value": "reduces pTau (181) levels"}, {"measurement": "activated Ab1, immunoblot", "setting": "[6]", "value": "did not engage"}, {"measurement": "activated Ab1, immunoblot", "setting": "[6]; listed as BK-40143", "value": "does not engage"}, {"measurement": "lactate dehydrogenase (LDH), neuroprotective effect", "setting": "[7]; 1 μM, 16 hours of treatment, compared to control", "value": "decrease"}, {"measurement": "LDH measured in the media (cell death / toxicity)", "setting": "[7]; five hours of treatment", "value": "does not result in toxicity or cell death"}, {"measurement": "LDH measured in the media (cell death / toxicity)", "setting": "[7]; five hours of treatment, listed as BK41043", "value": "without any change to LDH levels"}, {"measurement": "cell viability via LDH", "setting": "[7]; five hours of treatment, with decreasing concentrations", "value": "stepwise increase in cell viability"}, {"measurement": "activated Src, immunoblot", "setting": "[8]", "value": "did not engage"}, {"measurement": "activated Src, immunoblot", "setting": "[8]; listed as BK-40143", "value": "does not engage"}, {"measurement": "MTT, neuroprotective effect", "setting": "[9]", "value": "increase"}, {"measurement": "reduction of human phosphorylated tau (Ser396)", "setting": "[10]", "value": "over 80%"}, {"measurement": "total distance travelled, open field", "setting": "[11]", "value": "did not show any difference"}, {"measurement": "total time spent moving, open field", "setting": "[11]", "value": "did not show any difference"}, {"measurement": "velocity of movements, open field", "setting": "[11]", "value": "significantly increased"}, {"measurement": "Tau (HT7) level", "setting": "[12]", "value": "significantly reduced"}, {"measurement": "level of the dopamine metabolite homovanillic acid (HVA)", "setting": "[13]", "value": "increase"}, {"measurement": "increase of overall level of dopamine", "setting": "[13]; 2.5 mg/kg", "value": 30, "unit": "%"}, {"measurement": "increase of overall level of dopamine", "setting": "[13]; listed as BK-40143, 2.5 mg/kg", "value": "about 30%"}]}
